According to patent publication US5061794A, “Cephalosporin derivatives, and antibacterial agents” (priority 1986, dated 1991):
Read-outs that look alike come from different tables or passages of the source.

How the values were obtained:
[1] = tested on: E. coli CSH(RE45); test: microbe, parasite or virus in culture; assay type: cell-based; conditions: Escherichia coli, 16 h, read-out: Minimum Inhibitory Concentration (MIC), *E. coli CSH(RE45), lactamase-producing strain; 10^6 CFU/ml
Method in brief: (§1)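 Inoculum 10^6 CFU/ml; medium Mueller Hinton agar with graded antibiotic; 37° C./16 h; endpoint MIC (μg/ml).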

[2] = tested on: E. coli CSH2 (RK1); test: microbe, parasite or virus in culture; assay type: cell-based; conditions: Escherichia coli, 16 h, read-out: Minimum Inhibitory Concentration (MIC), *E. coli CSH2 (RK1), lactamase-producing strain; 10^6 CFU/ml
Method in brief: as §1

[3] = tested on: Ps. aeruginosa AK 109; test: in vitro antibacterial activity, agar plate dilution method (MIC); assay type: cell-based, Pseudomonas aeruginosa; conditions: Pseudomonas aeruginosa, AK109, 16 h, read-out: Minimum Inhibitory Concentration (MIC)
Method in brief: as §1

[4] = tested on: Ps. aeruginosa AKR17; test: as above; assay type: cell-based, Pseudomonas aeruginosa; conditions: Pseudomonas aeruginosa, read-out: Minimum Inhibitory Concentration (MIC)
Method in brief: as §1

[5] = tested on: Ps. aeruginosa IF03445; test: as above; assay type: cell-based, Pseudomonas aeruginosa; conditions: Pseudomonas aeruginosa, 10^6 CFU/ml
Method in brief: as §1

[6] = tested on: Ps. cepacia 23; test: as above; assay type: cell-based, Pseudomonas cepacia; conditions: read-out: Minimum Inhibitory Concentration (MIC)
Method in brief: as §1

[7] = tested on: S. marcescens No. 16-2; test: as above; assay type: cell-based; conditions: Serratia marcescens, NO.162, 16 h
Method in brief: as §1

[8] = tested on: E. coli GN5482; test: as above; assay type: cell-based; conditions: Escherichia coli, GN5482, 16 h
Method in brief: as §1

[9] = tested on: E. coli NIHJ JC2; test: as above; assay type: cell-based; conditions: Escherichia coli, NIHJJC2, 16 h, read-out: Minimum Inhibitory Concentration (MIC), E. coli NIHJ JC2, 10^6 CFU/ml, 37° C.
Method in brief: as §1

[10] = tested on: K. oxytoca GN10650; test: as above; assay type: cell-based; conditions: Klebsiella oxytoca, GN10650, 16 h, read-out: Minimum Inhibitory Concentration (MIC), *K. oxytoca GN10650, lactamase-producing strain; 10^6 CFU/ml
Method in brief: as §1

[11] = tested on: K. pneumoniae No. 42; test: as above; assay type: cell-based; conditions: Klebsiella pneumoniae, 10^6 CFU/ml
Method in brief: as §1

[12] = tested on: S. aureus 209P NIHJ-JC1; test: as above; assay type: cell-based; conditions: Staphylococcus aureus, 16 h
Method in brief: as §1

[13] = tested on: M. morganii GN5407; test: as above; assay type: cell-based; conditions: Morganella morganii, GN5407, 16 h, read-out: Minimum Inhibitory Concentration (MIC), *M. morganii GN5407, lactamase-producing strain; 10^6 CFU/ml
Method in brief: as §1

[14] = tested on: E. cloacae Nek 39; test: as above; assay type: cell-based; conditions: Enterobacter cloacae, NEK39, 16 h, 10^6 CFU/ml
Method in brief: as §1

[15] = tested on: P. vulgaris No. 33; test: as above; assay type: cell-based; conditions: Proteus vulgaris, NO.33, 16 h, read-out: Minimum Inhibitory Concentration (MIC), *P. vulgaris No. 33, lactamase-producing strain; 10^6 CFU/ml
Method in brief: as §1

[16] = tested on: K. pneumoniae PCI-602; test: as above; assay type: cell-based; conditions: Klebsiella pneumoniae, PCI602, 16 h, 10^6 CFU/ml
Method in brief: as §1

[17] = tested on: S. marcescens IAM 1184; test: as above; assay type: cell-based; conditions: Serratia marcescens, IAM1184, 16 h, read-out: Minimum Inhibitory Concentration (MIC)
Method in brief: as §1

[18] = tested on: E. cloacae 963; test: as above; assay type: cell-based; conditions: Enterobacter cloacae, 963, 16 h, read-out: Minimum Inhibitory Concentration (MIC), E. cloacae 963; 10^6 CFU/ml
Method in brief: as §1

[19] = tested on: P. vulgaris HX-19; test: as above; assay type: cell-based; conditions: Proteus vulgaris, HX19, 16 h, read-out: Minimum Inhibitory Concentration (MIC)
Method in brief: as §1

[20] = tested on: A. calcoaceticus No. 4; test: as above; assay type: cell-based, Acinetobacter calcoaceticus; conditions: Acinetobacter calcoaceticus, NO.4, 16 h, 10^6 CFU/ml
Method in brief: as §1

[21] = 16 h, Ps. aeruginosa AKR17, 10^6 CFU/ml
[22] = read-out: Minimum Inhibitory Concentration (MIC)
[23] = NO.42, 16 h, read-out: Minimum Inhibitory Concentration (MIC), *K. pneumoniae No. 42, lactamase-producing strain
[24] = read-out: Minimum Inhibitory Concentration (MIC), S. aureus 209P NIHJ-JC1, 10^6 CFU/ml, 37° C., 16 hours
[25] = A. calcoaceticus No. 4, read-out: Minimum Inhibitory Concentration (MIC)
[26] = IF03445, 16 h, read-out: Minimum Inhibitory Concentration (MIC), Ps. aeruginosa IF03445
[27] = Burkholderia cepacia, 16 h, Ps. cepacia 23, 10^6 CFU/ml
[28] = read-out: Minimum Inhibitory Concentration (MIC), *E. coli GN5482, lactamase-producing strain, 10^6 CFU/ml
[29] = read-out: Minimum Inhibitory Concentration (MIC), *E. cloacae Nek 39, lactamase-producing strain
[30] = read-out: Minimum Inhibitory Concentration (MIC), K. pneumoniae PCI-602
[31] = read-out: Minimum Inhibitory Concentration (MIC), A. calcoaceticus No. 4

| SMILES | MIC [1] [µg/mL] | MIC [2] [µg/mL] | MIC [4, 21] [µg/mL] | MIC ([6]; Burkholderia cepacia, 23, 16 h) [µg/mL] | MIC [9] [µg/mL] | MIC [10] [µg/mL] | MIC [11, 23] [µg/mL] | MIC [12, 24] [µg/mL] | MIC [13] [µg/mL] | MIC [15] [µg/mL] | MIC [17] [µg/mL] | MIC [18] [µg/mL] | MIC ([19]; P. vulgaris HX-19, 10^6 CFU/ml) [µg/mL] | MIC [20, 25] [µg/mL] | MIC [3] [µg/mL] | MIC [5, 26] [µg/mL] | MIC [6, 27] [µg/mL] | MIC [8, 28] [µg/mL] | MIC [14, 29] [µg/mL] | MIC [16, 30] [µg/mL] | other results |
| --- | --- | --- | --- | --- | --- | --- | --- | --- | --- | --- | --- | --- | --- | --- | --- | --- | --- | --- | --- | --- | --- |
| CC(C)(O/N=C(\C(=O)N[C@@H]1C(=O)N2C(C(=O)O)=C(CSc3ncc(-c4ccc(O)cc4)o3)CS[C@H]12)c1csc(N)n1)C(=O)O [compound 24, disodium 7β-[2-(2-aminothiazol-4-yl)-2-(1-carboxylate-1-methylethoxyimino)acetamido]-3-[5-(4-hydroxyphenyl)oxazol-2-yl]thiomethyl-3-cephem-4-carboxylate, reference compound] | 3.12 | 3.12 | > 100 | 6.25 | 12.5 | 6.25 | 12.5 | 6.25 | 6.25 | 0.39 | 3.12 | 12.5 | < 0.006 | > 100 | – | – | – | – | – | – | MIC ([3]; Ps. aeruginosa AK 109, 10^6 CFU/ml): 25 µg/mL; MIC ([5]; 16 h, Ps. aeruginosa IF03445, read-out: Minimum Inhibitory Concentration (MIC)): 25 µg/mL; MIC ([7]; *S. marcescens No. 16-2, lactamase-producing strain, 10^6 CFU/ml, read-out: Minimum Inhibitory Concentration (MIC)): 25 µg/mL; MIC [8, 22]: 3.12 µg/mL; MIC ([14]; *E. cloacae Nek 39, lactamase-producing strain, read-out: Minimum Inhibitory Concentration (MIC)): 25 µg/mL; MIC ([16]; K. pneumoniae PCI-602, read-out: Minimum Inhibitory Concentration (MIC)): 0.2 µg/mL |
| C=CCO/N=C(\C(=O)N[C@@H]1C(=O)N2C(C(=O)O)=C(CSc3nnc(-c4ccc(O)c(O)c4)s3)CS[C@H]12)c1csc(N)n1 [compound 30, sodium 78-[2-allyloxyimino-2-(2-aminothiazol-4-yl)acetamido]-3-[5-(3,4-dihydroxyphenyl)-1,3,4-thiadiazol-2-yl]thiomethyl-3-cephem-4-carboxylate] | 0.78 | 0.0125 | 25 | – | 0.2 | 1.56 | – | 0.78 | 0.05 | 0.39 | 0.0125 | 0.05 | < 0.006 | 0.2 | 0.39 | 0.39 | < 0.006 | 0.78 | 0.1 | < 0.006 | MIC [7, 22]: 12.5 µg/mL; MIC ([11]; 16 h, *K. pneumoniae No. 42, lactamase-producing strain, read-out: Minimum Inhibitory Concentration (MIC)): < 0.006 µg/mL |
| CON=C(C(=O)NC1C(=O)N2C(C(=O)O)=C(CSc3nc(-c4ccc(O)c(O)c4)cs3)CSC12)c1csc(N)n1 (stereo not drawn) [compound 39, sodium 7β-[2-(2-aminothiazol-4-yl)-2-methoxviminoacetamido]-3-[4-(3,4-dihydroxyphenvl)-thiazol-2-yl]thiomethyl-3-cephem-4-carboxylate] | 0.1 | 0.0125 | > 100 | – | 0.1 | 1.56 | 0.2 | 1.56 | 0.05 | 0.05 | – | 0.025 | < 0.006 | – | 3.12 | 1.56 | 0.2 | 0.78 | 0.39 | < 0.006 | MIC [7, 22]: 3.12 µg/mL; MIC ([17]; S. marcescens IAM 1184, 10^6 CFU/ml): 0.05 µg/mL; MIC [20, 31]: 0.39 µg/mL |
| CCON=C(C(=O)N[C@@H]1C(=O)N2C(C(=O)[O-])=C(CSc3nc(-c4ccc(O)c(O)c4)cs3)CS[C@H]12)c1csc(N)n1.[Na+] [compound 48, sodium 7β-[2-(2-aminothiazol-4-yl)-2-ethoxyiminoacetamido]-3-[4-(3,4-dihydroxyphenyl)-thiazol-2-yl]thiomethyl-3-cephem-4-carboxylate] | 0.05 | 0.025 | – | 0.1 | 0.39 | 1.56 | 0.05 | – | 0.1 | 0.05 | 0.1 | 0.1 | – | – | 0.39 | 1.56 | – | 1.56 | 0.78 | < 0.006 | MIC ([4]; AKR17, 16 h): 50 µg/mL; MIC ([7]; read-out: Minimum Inhibitory Concentration (MIC), *S. marcescens No. 16-2, lactamase-producing strain, 10^6 CFU/ml): 6.25 µg/mL; MIC [12, 22]: 3.12 µg/mL; MIC [19]: 0.0125 µg/mL; MIC [20, 31]: 0.39 µg/mL |
